Assay results from US7173012B2, “Hypoglycaemic peptides and methods of use thereof” (International Diabetes Institute, priority 2001, dated 2007).
Entries after “also recorded” stand apart in the source; their conditions may differ. Ends that are not written are not given here.

What was measured:
[1] = Isoaspartate (β-isomerised) formation in synthetic peptides, by reverse-phase HPLC; type: physicochemical; conditions: β-isomerised peptide obtained after synthesis (piperidine deprotection, TFA cleavage), HPLC 214 nm
Procedure: A mixture of synthetic peptides (Gly-His-Thr-Asp, Val-His-Thr-Asp and Asp-His-Thr-Gly) and their corresponding β-isomerised formation (Gly-His-Thr-βAsp, Val-His-Thr-βAsp and βAsp-His-Thr-Gly) were separated by reverse-phase HPLC and eluted with an isocritic running with 2% buffer B (buffer A is 0.1% trifluoroacetic acid in H2O) at 1 ml/min over 30 min. Peptides were determined by their absorbance at 214 nm.
Based on the structure of the UP-401 peptide, analogues with various sequences were synthesised for further biological characterization as shown in Table 1. All synthetic peptides were purified by RP-HPLC using a C18 column and characterized by mass spectrometry. During synthesis, the peptide chains were treated with base (piperidine) in deprotection steps and then eventually treated with TFA at cleavage steps.
Table 2 and FIG. 5 outline the amino acid sequence of the UP-401 peptide and its analogues, and the ratio of nonisomerized and β-isomerised peptide obtained in each.

[2] = test system: isolated rat hemidiaphragm muscle; experiment: Glycogen synthesis in isolated rat hemidiaphragm muscle (incorporation of 14C-glucose into glycogen, in presence of insulin); type: cell-based; conditions: for biological activity on insulin-stimulated glycogen synthesis (in words): isolated rat muscle, FIG. 3 / FIG. 7
Procedure: Glycogen synthesis in isolated rat hemidiaphragm muscle was measured by the rate of incorporation of radioactive glucose into glycogen (16). Overnight-fasted male albino Wistar rats (20 week old) were killed by decapitation and their hemidiaphragm tissues immediately removed. The hemidiaphragm tissues were pre-incubated for 30 min at 37° C., in Kreb's-Ringer bicarbonate buffer (KRB) containing 1.0% bovine serum albumin BSA, and 1.0 mg/ml glucose gassed pH 7.4. After pre-incubation, the tissues were further incubated for 60 min at 37° C. in 2 ml of incubation buffer in the presence of insulin at a concentration 0.33 μu/ml and the label ^14C-glucose at 0.28 μCi/ml under an atmosphere of carbogen with or without peptide of various concentrations. At the end of the incubation, the tissues were removed and rinsed with cold distilled water, blotted and placed in a plastic centrifuge tubes for glycogen extraction with 30% KOH 10 μl/mg tissue for 5 min in a boiling water bath. The tissue ^14C-glycogen was precipitated with saturated Na2SO4 and absolute alcohol. After centrifugation at 4000×G at 4° C. for 10 min, the supematant was discarded and the precipitate washed twice by resuspending in 66% ethanol and centrifuged as before. The final glycogen precipitate was dissolved in distilled water 30 μl/mg and 1.0 ml of the solution was transferred to a counting vial containing a triton scintillator (8 ml). Radioactivity was determined in a Wallac LKB counter from Pharmacia-Wallac Oy, (Turku, Finland). The total glycogen content in the diaphragm muscle was calculated according to the method of Van Handel (17).
(§1) Experimental procedures for the in vitro and in vivo assays were described in Example 1. In principle, the rate of conversion from glucose into glycogen in isolated hemidiaphragm muscle was used as the index to determine the in vitro activity of peptides (6). The in vivo tests for the peptides were performed on Zucker fatty (fa/fa) rats by i.v. administration of peptides and the reduction of the blood glucose levels was measured and regarded as the index of the hypoglycaemic effect (18).

[3] = test system: male Zucker fatty (fa/fa) rats; experiment: In vivo hypoglycaemic test: blood glucose after i.v. peptide then insulin; set-up: species or system rat; blood glucose level reduced to a maximum of / Reduction of blood glucose level: unit not given here; conditions: for in vivo hypoglycaemic effect on blood glucose levels (in words): i.v., overnight-fasted Zucker fatty rats, compared with saline control or comparator peptide
Procedure: In vivo tests of the hypoglycaemic peptides were performed on overnight-fasted male Zucker fatty (fa/fa) rats 45 min after induction of anaesthesia with an intraperitoneal injection of sodium pentobarbitone at a dose 60 mg/kg body weight. Basal blood glucose samples were collected from the cut tip of the tail. The two femoral veins in the anaesthetised animals were then exposed, followed immediately by an intravenous injection of saline (control) or peptide into the left femoral vein. Approximately 15 min after the administration of peptide or saline via the left femoral vein, insulin was injected via the right femoral vein. […] Blood glucose levels of the collected samples were measured immediately by the glucose oxidation method using a Yellow Springs YSI modal 2300 STAT Glucose Analyzer (Yellow Spring, Ohio).
as §1

[4] = 3 mg/kg body weight, Example 1, FIG. 4

Substance | Isoasp [1] | biological activity on insulin-stimulated glycogen synthesis (in words) [2] | Reduction of blood glucose level ([3]; 3 mg, 15 min) | Reduction of blood glucose level ([3]; 3 mg, 30 min) | Reduction of blood glucose level ([3]; 3 mg, 45 min) | Reduction of blood glucose level ([3]; 3 mg, 60 min) | Reduction of blood glucose level ([3]; 3 mg, 75 min) | Reduction of blood glucose level ([3]; 3 mg, 90 min) | in vivo hypoglycaemic effect on blood glucose levels (in words) [3] | also measured
Asp-His-Thr-Gly-NH2 (DHTG-NH2) [UP-403] | 75.2 | reduced the peptide activity; also recorded: reduced the potency | – | – | – | – | – | – | – | biological activity on insulin-stimulated glycogen synthesis (in words) ([2]; listed as Asp-His-Thr-Gly): also detected
Gly-His-Thr-Asp-NH2 (GHTD-NH2) [UP-401] | 45.2 | better insulin-potentiating effect than that of the known insulin-potentiating hGH(6–13) peptide | −0.50 | −0.91 | −1.1 | −0.93 | −0.64 | −0.08 | significant | hypoglycaemic action diminished after [3, 4]: 90 min; in vivo hypoglycaemic action found after the injection (onset) [3, 4]: 15 min; time of maximal hypoglycaemic effect after treatment [3, 4]: 45 min; time of maximal decrease in blood glucose level after treatment ([3]; 3 mg/kg, Example 2): 60 min; increase of glycogen synthesis ([2]; isolated rat hemi-diaphragm, with insulin, synthetic peptide 0.1 μM (FIG. 3)): 36.3%
Val-His-Thr-Asp-NH2 (VHTD-NH2) [UP-402] | 48.3 | much higher than that of any other peptide | −0.26 | −0.62 | −1.21 | −1.25 | −0.64 | 0.05 | – | blood glucose level reduced to a maximum of ([3]; 3 mg/kg body weight): 0.95; effect on blood glucose prolonged to ([3]; 4.5 mg/kg body weight, FIG. 8): 120 min; Reduction of blood glucose level ([3]; 4.5 mg, 15 min): −0.43; Reduction of blood glucose level ([3]; 4.5 mg, 30 min): −1.03; Reduction of blood glucose level ([3]; 4.5 mg, 45 min): −1.50; Reduction of blood glucose level ([3]; 4.5 mg, 60 min): −1.45; Reduction of blood glucose level ([3]; 4.5 mg, 75 min): −1.52; Reduction of blood glucose level ([3]; 4.5 mg, 90 min): −1.35; Reduction of blood glucose level ([3]; 4.5 mg, 120 min): 0.07; higher glycogen synthesis ([2]; in vitro, insulin-stimulated, isolated rat muscle (FIG. 7)): 68%
Val-His-Thr-Pro-NH2 (VHTP-NH2) [UP-404] | – | reduced the potency | −0.21 | −0.54 | −0.77 | −0.95 | 0.23 | −0.03 | – | biological activity on insulin-stimulated glycogen synthesis (in words) ([2]; listed as Val-His-Thr-Pro): no appreciable stimulation
Val-His-Thr-isoAsp-NH2 (VHTX; HELM PEPTIDE1{V.H.T.[O=C(O)[C@H](CC(=O)[*:2])N[*:1]].[am]}$$$$V2.0; N-terminus assumed; SMILES CC(C)[C@H](N)C(=O)N[C@@H](Cc1c[nH]cn1)C(=O)N[C@H](C(=O)N[C@@H](CC(N)=O)C(=O)O)[C@@H](C)O) [UP-406] | – | reduced the potency | – | – | – | – | – | – | No significant difference | biological activity of isoaspartate peptide, reduced to (relative to Val-His-Thr-Asp) ([2]; peptide concentration of 0.1 mM, insulin-stimulated glycogen synthesis): 46%
isoAsp-His-Thr-Gly-NH2 (XHTG; HELM PEPTIDE1{[N[C@@H](CC(=O)[*:2])C(=O)O].H.T.G.[am]}$$$$V2.0; N-terminus assumed; SMILES C[C@@H](O)[C@H](NC(=O)[C@H](Cc1c[nH]cn1)NC(=O)C[C@H](N)C(=O)O)C(=O)NCC(N)=O) [UP-407] | – | reduced the peptide activity | – | – | – | – | – | – | – | biological activity on insulin-stimulated glycogen synthesis (in words) ([2]; listed as βAsp-His-Thr-Gly): also detected
